In patent US7348402B2, “Antimicrobial peptide, its analogs and antimicrobial composition comprising them” (priority 2002, dated 2008):
No end group written: not given here.

Legend:
Format in all cases: cell-based
[1] = tested on: Bacillus subtilis (ATCC 62037); conditions: ATCC 62037, 12 h
Description: (§1) The microorganisms used in the present invention include Gram-positive bacteria such as Bacillus subtilis (ATCC 62037), Staphylococcus aureus (ATCC 15752) and Streptococcus mutans (ATCC 25175), Gram-negative bacteria such as Escherichia coli (ATCC 27325), Salmonella enteritidis (ATCC 15277) and Pseudomonas putida (ATCC 17426) and fungi such as Candida albicans (ATCC 10231), Saccharomyces cerevisiae (ATCC 44774) and Cryptococcus neoformans (ATCC 34881), obtained from American Type Culture Collection (ATCC).
(§2) The antimicrobial activity of the peptides prepared in Example 1 was determined against microorganisms by 96-well microdilution minimal inhibitory concentration assay. After overnight culturing the bacteria and fungi in trypticase soy broth (TSB) and Saboraud (SAB) at 37° C. and 30° C., respectively, they were inoculated in new media and cultured for 2 hours to exponential growth phase. After diluting the microorganisms to 10^5 per 1 ml, 190 μl was inoculated in each 96-well plate, and 10 μl of serially diluted peptides were added in each well.

[2] = tested on: Candida albicans (ATCC 10231); conditions: ATCC 10231, 12 h
Description: as §1, §2

[3] = tested on: Cryptococcus neoformans (ATCC 34881); conditions: ATCC 34881, 12 h
Description: as §1, §2

[4] = tested on: Escherichia coli (ATCC 27325); conditions: ATCC 27325, 12 h
Description: as §1, §2

[5] = tested on: Pseudomonas putida (ATCC 17426); conditions: ATCC 17426, 12 h
Description: as §1, §2

[6] = tested on: Saccharomyces cerevisiae (ATCC 44774); conditions: ATCC 44774, 12 h
Description: as §1, §2

[7] = tested on: Salmonella enteritidis (ATCC 15277); conditions: ATCC 15277, 12 h
Description: as §1, §2

[8] = tested on: Staphylococcus aureus (ATCC 15752); conditions: ATCC 15752, 12 h
Description: as §1, §2

[9] = tested on: Streptococcus mutans (ATCC 25175); conditions: ATCC 25175, 12 h
Description: as §1, §2

| Substance | Minimum Inhibitory Concentration [1] [µg/mL] | Minimum Inhibitory Concentration [2] [µg/mL] | Minimum Inhibitory Concentration [3] [µg/mL] | Minimum Inhibitory Concentration [4] [µg/mL] | Minimum Inhibitory Concentration [5] [µg/mL] | Minimum Inhibitory Concentration [6] [µg/mL] | Minimum Inhibitory Concentration [7] [µg/mL] | Minimum Inhibitory Concentration [8] [µg/mL] | Minimum Inhibitory Concentration [9] [µg/mL] |
| --- | --- | --- | --- | --- | --- | --- | --- | --- | --- |
| KVVKNWPIGKVVKKVVKKVVK [compound 19] | 2 | 1 | 1 | 2 | 1 | 2 | 1 | 1 | 1 |
| KVVKQWPIGKVVKKVVKKVVK [compound 2] | 1 | 1 | 1 | 1 | 1 | 2 | 1 | 1 | 2 |
| KVVRKVVRKVVRQWPIGKVVR [compound 44] | 2 | 2 | 1 | 1 | 1 | 1 | 1 | 1 | 2 |
| KVVRQWPIGKVVRKVVRKVVR [compound 10] | 1 | 2 | 1 | 1 | 1 | 2 | 1 | 1 | 2 |
| RLLKQWPIGRLLKRLLKRLLK [compound 11] | 1 | 1 | 1 | 1 | 1 | 2 | 2 | 1 | 2 |
| RLLKRLLKRLLKQWPIGRLLK [compound 45] | 1 | 2 | 2 | 1 | 1 | 2 | 2 | 1 | 1 |
| RLLRNWPIGRLLRRLLRRLLR [compound 20] | 2 | 1 | 1 | 1 | 1 | 2 | 2 | 1 | 2 |
| RLLRQWPIGRLLRRLLRRLLR [compound 3] | 2 | 1 | 1 | 2 | 1 | 2 | 1 | 1 | 1 |
| RLLRRLLRRLLRNWPIGRLLR [compound 54] | 1 | 1 | 1 | 2 | 1 | 2 | 1 | 1 | 2 |
| RLLRRLLRRLLRQWPIGRLLR [compound 37] | 1 | 2 | 2 | 1 | 1 | 2 | 2 | 1 | 1 |
| RLVKNWPIGRLVKRLVKRLVK [compound 32] | 1 | 1 | 1 | 1 | 1 | 2 | 1 | 1 | 2 |
| RLVKNWPIGRLVKRLVKRLVK-NH2 [compound 70] | 1 | 1 | 1 | 1 | 1 | 1 | 1 | 1 | 2 |
| RLVKRLVKRLVKNWPIGRLVK [compound 66] | 1 | 1 | 1 | 2 | 1 | 2 | 1 | 1 | 2 |
| RLVRNWPIGRLVRRLVRRLVR [compound 24] | 1 | 2 | 1 | 1 | 1 | 2 | 2 | 1 | 1 |
| RLVRRLVRRLVRNWPIGRLVR [compound 58] | 1 | 2 | 1 | 1 | 1 | 2 | 1 | 1 | 1 |
